Among the data in patent US20250074891A1 (Anaxis Pharma Pty Ltd., priority 2021, published 2025) are Kd values, retold here.

Common to all, as to conditions: Table 35
In test [1] the target is RIP1 (Homo sapiens (Human), UniProt Q13546). The test is described as follows: KINOMEscan binding assay, RIP1.
Test [2] deals with MLKL (full length) (Homo sapiens (Human), UniProt Q8NB16). The test is described as follows: KINOMEscan binding assay, MLKL (full length). How it is done:
(§1) Kinase assays. For most assays, kinase-tagged T7 phage strains were grown in parallel in 24-well blocks in an E. coli host derived from the BL21 strain. E. coli were grown to log-phase and infected with T7 phage from a frozen stock (multiplicity of infection=0.4) and incubated with shaking at 32° C. until lysis (90-150 minutes).
(§2) The Hill Slope was set to −1.

The target of test [3] is RIP3 (Homo sapiens (Human), UniProt Q9Y572). As to the kind of experiment: KINOMEscan binding assay, RIP3. The procedure: as §1, §2
Sequence of RIP3 (Q9Y572 whole entry): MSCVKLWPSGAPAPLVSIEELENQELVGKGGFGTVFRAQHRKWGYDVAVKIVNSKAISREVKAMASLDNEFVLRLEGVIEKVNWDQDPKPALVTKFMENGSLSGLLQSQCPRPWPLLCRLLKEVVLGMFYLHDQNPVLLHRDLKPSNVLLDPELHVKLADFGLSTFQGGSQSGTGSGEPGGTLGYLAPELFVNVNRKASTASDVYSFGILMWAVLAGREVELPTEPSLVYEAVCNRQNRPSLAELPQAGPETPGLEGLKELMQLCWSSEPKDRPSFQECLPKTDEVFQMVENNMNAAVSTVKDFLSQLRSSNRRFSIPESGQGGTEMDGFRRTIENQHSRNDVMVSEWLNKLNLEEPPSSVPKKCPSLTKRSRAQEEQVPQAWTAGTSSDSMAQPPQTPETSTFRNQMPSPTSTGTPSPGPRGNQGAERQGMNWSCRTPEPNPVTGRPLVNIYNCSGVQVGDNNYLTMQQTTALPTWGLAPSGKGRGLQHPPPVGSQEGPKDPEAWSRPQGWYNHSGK

Sequence of MLKL (full length) (Q8NB16 whole entry): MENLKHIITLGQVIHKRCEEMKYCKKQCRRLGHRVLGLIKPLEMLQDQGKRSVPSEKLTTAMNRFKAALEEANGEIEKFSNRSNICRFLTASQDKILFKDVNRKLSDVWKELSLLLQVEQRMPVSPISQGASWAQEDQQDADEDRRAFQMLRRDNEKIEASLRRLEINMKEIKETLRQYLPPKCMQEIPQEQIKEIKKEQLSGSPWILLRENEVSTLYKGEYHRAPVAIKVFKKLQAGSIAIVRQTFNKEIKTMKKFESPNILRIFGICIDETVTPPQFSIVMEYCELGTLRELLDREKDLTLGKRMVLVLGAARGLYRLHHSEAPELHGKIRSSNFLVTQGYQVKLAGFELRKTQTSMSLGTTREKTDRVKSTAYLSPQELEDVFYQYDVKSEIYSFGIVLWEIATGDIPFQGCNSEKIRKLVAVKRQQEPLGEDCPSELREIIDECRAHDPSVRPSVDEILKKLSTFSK
Sequence of RIP1 (Q13546 whole entry): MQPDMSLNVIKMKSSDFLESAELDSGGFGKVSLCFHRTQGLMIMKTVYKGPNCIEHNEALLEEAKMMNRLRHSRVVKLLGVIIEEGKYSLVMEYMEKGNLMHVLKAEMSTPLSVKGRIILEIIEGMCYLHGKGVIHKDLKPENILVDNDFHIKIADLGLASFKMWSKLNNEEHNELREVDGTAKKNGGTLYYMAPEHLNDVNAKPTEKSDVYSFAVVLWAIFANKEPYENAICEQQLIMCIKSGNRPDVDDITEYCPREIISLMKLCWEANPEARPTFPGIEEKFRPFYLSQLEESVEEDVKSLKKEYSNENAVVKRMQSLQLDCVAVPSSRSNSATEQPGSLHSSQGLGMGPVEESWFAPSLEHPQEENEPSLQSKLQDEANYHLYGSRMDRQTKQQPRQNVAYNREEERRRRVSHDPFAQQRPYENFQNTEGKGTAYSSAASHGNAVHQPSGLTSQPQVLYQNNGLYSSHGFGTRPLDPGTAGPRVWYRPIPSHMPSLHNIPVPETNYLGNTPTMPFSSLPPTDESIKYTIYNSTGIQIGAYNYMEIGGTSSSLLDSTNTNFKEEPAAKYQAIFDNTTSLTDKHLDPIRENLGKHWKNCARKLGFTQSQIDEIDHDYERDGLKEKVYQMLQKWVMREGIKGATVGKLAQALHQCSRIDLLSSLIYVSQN

In the case of `CCC(Oc1cc(-c2n[nH]c(Nc3cnccn3)c2C(N)=O)ccc1NS(=O)(=O)C(F)F)c1ccc(F)cc1` (racemic) [Compound 233, 3-[4-(difluoromethanesulfonamido)-3-[1-(4-fluorophenyl)propoxy]phenyl]-5-[(pyrazin-2-yl)amino]-1H-pyrazole-4-carboxamide], the Kd is greater than 30 µM in test [1], less than 0.01 µM in test [2] and greater than 30 µM in test [3].

With `CC(Oc1cc(-c2n[nH]c(Nc3cnccn3)c2C(N)=O)ccc1NS(=O)(=O)C(F)F)c1ncco1` (racemic) [Compound 293, 3-(4-((difluoro-methyl)sulfon-amido)-3-(1-(oxazol-2-yl)ethoxy)phenyl)-5-(pyrazin-2-ylamino)-1H-pyrazole-4-carboxamide], the Kd in test [1] was greater than 30 µM; in test [2] it was less than 0.01 µM; in test [3], greater than 30 µM.

Turning to `COCC(Oc1cc(-c2n[nH]c(Nc3cc(C)on3)c2C(N)=O)ccc1NS(=O)(=O)C(F)F)c1ccc(F)cc1` (racemic) [Compound 298, 3-(4-((difluoromethyl)sulfonamido)-3-(1-(4-fluorophenyl)-2-methoxyethoxy)phenyl)-5-((5-methylisoxazol-3-yl)amino)-1H-pyrazole-4-carboxamide], the Kd was greater than 30 µM in test [1], less than 0.01 µM in test [2] and greater than 30 µM in test [3].

For `CCS(=O)(=O)Nc1ccc(-c2n[nH]c(Nc3ccccn3)c2C(N)=O)cc1OCc1cccc(Cl)c1` [Compound 38, 3-(3-((3-chlorobenzyl)oxy)-4-(ethylsulfon-amido)phenyl)-5-(pyridin-2-ylamino)-1H-pyrazole-4-carboxamide], the Kd in test [2] was less than 0.01 µM; in test [3], greater than 30 µM.

For the molecule `CCS(=O)(=O)Nc1ccc(-c2n[nH]c(Nc3ccccn3)c2C(N)=O)cc1OCc1ccc(Cl)cc1` [Compound 39, 3-(3-((4-chlorobenzyl)oxy)-4-(ethylsulfon-amido)phenyl)-5-(pyridin-2-ylamino)-1H-pyrazole-4-carboxamide], the Kd was less than 0.01 µM in test [2] and greater than 30 µM in test [3].

Regarding `Cc1ccc(CS(=O)(=O)Nc2ccc(-c3n[nH]c(Nc4ccccn4)c3C(N)=O)cc2)cc1` [Compound 132, 5-(pyridin-2-ylamino)-3-(4-((p-tolylmethyl)sulfonamido)phenyl)-1H-pyrazole-4-carboxamide], the Kd in test [1] and in test [3] was greater than 30 µM in each case.

Regarding `CCS(=O)(=O)Nc1ccc(-c2n[nH]c(Nc3ccc4ccc(Cl)cc4n3)c2C(N)=O)cc1OCc1ccc(F)cc1` [Compound 138, 5-((7-chloroquinolin-2-yl)amino)-3-(4-(ethylsulfonamido)-3-((4-fluorobenzyl)oxy)phenyl)-1H-pyrazole-4-carboxamide], the Kd in test [1] and in test [3] was greater than 30 µM in each case.

`CCS(=O)(=O)Nc1ccc(-c2n[nH]c(Nc3cccc(C(F)(F)F)n3)c2C(N)=O)c(OCc2ccc(F)cc2)c1` [Compound 141, 3-(4-(ethylsulfonamido)-2-((4-fluorobenzyl)oxy)phenyl)-5-((6-(trifluoromethyl)pyridine-2-yl)amino)-1H-pyrazole-4-carboxamide]: the Kd in test [1] and in test [3] was greater than 30 µM each time.

Consider `NC(=O)c1c(-c2ccc(NS(=O)(=O)CCC(F)(F)F)c(OCc3ccc(F)cc3)c2)n[nH]c1Nc1cccc(C(F)(F)F)n1` [Compound 182, 3-(3-((4-fluorobenzyl)oxy)-4-((3,3,3-trifluoropropyl)sulfonamido)phenyl)-5-((6-(trifluoromethyl)pyridine-2-yl)amino)-1H-pyrazole-4-carboxamide], for which the Kd in test [1] and in test [3] was greater than 30 µM throughout.

As to `CCS(=O)(=O)Nc1ccc(-c2n[nH]c(Nc3cnccn3)c2C(N)=O)cc1OCC1CCCN(C)C1` (stereo not shown) [Compound 187, 3-(4-(ethylsulfonamido)-3-((1-methylpiperidin-3-yl)methoxy)phenyl)-5-(pyrazin-2-ylamino)-1H-pyrazole-4-carboxamide], the Kd in test [1] and in test [3] was greater than 30 µM each time.

`CCS(=O)(=O)Nc1ccc(-c2n[nH]c(Nc3cccnc3C(F)(F)F)c2C(N)=O)cc1OCc1ccc(F)cc1` [Compound 192, 3-(4-(ethylsulfonamido)-3-((4-fluorobenzyl)oxy)phenyl)-5-((2-(trifluoromethyl)pyridine-3-yl)amino)-1H-pyrazole-4-carboxamide]: the Kd in test [1] and in test [3] was greater than 30 µM each time.

Regarding `CCS(=O)(=O)Nc1ccc(-c2n[nH]c(Nc3cccc(C(F)(F)F)n3)c2C(N)=O)cc1OCC1CCCCC1` [Compound 200], the Kd in test [1] and in test [3] was greater than 30 µM in each case.

Consider `CCS(=O)(=O)Nc1ccc(-c2n[nH]c(Nc3cnccn3)c2C(N)=O)cc1OCC1CCN(C)CC1` [Compound 203, 3-(4-(ethylsulfonamido)-3-((1-methylpiperidin-4-yl)methoxy)phenyl)-5-(pyrazin-2-ylamino)-1H-pyrazole-4-carboxamide], for which the Kd in test [1] and in test [3] was greater than 30 µM in each case.

`CCS(=O)(=O)Nc1ccc(-c2n[nH]c(Nc3ccc(C(F)(F)F)cn3)c2C(N)=O)cc1OCc1ccc(F)cc1` [Compound 207]: the Kd in test [1] and in test [3] was greater than 30 µM in each case.

As for `CCS(=O)(=O)Nc1ccc(-c2n[nH]c(Nc3cnccn3)c2C(N)=O)c(OCc2cccc(F)c2)c1` [Compound 208, 3-(4-(ethylsulfonamido)-2-((3-fluorobenzyl)oxy)phenyl)-5-(pyrazin-2-ylamino)-1H-pyrazole-4-carboxamide], the Kd in test [1] and in test [3] was greater than 30 µM each time.

With `CCS(=O)(=O)Nc1ccc(-c2n[nH]c(Nc3cnccn3)c2C(N)=O)c(OC)c1` [Compound 209, 3-(4-(ethylsulfonamido)-2-methoxyphenyl)-5-(pyrazin-2-ylamino)-1H-pyrazole-4-carboxamide], the Kd in test [1] and in test [3] was greater than 30 µM each time.

As for `CCS(=O)(=O)Nc1ccc(-c2n[nH]c(Nc3cnccn3)c2C(N)=O)cc1OCc1cccc(OC(F)(F)F)c1` [Compound 214, 3-(4-(ethylsulfonamido)-3-((3-(trifluoromethoxy)benzyl)oxy)phenyl)-5-(pyrazin-2-ylamino)-1H-pyrazole-4-carboxamide], the Kd in test [1] and in test [3] was greater than 30 µM each time.

`CCS(=O)(=O)Nc1ccc(-c2n[nH]c(Nc3cnccn3)c2C(N)=O)cc1OCc1ccc(OC(F)(F)F)cc1` [Compound 215, 3-(4-(ethylsulfonamido)-3-((4-(trifluoromethoxy)benzyl)oxy)phenyl)-5-(pyrazin-2-ylamino)-1H-pyrazole-4-carboxamide]: the Kd in test [1] and in test [3] was greater than 30 µM each time.

With `CCS(=O)(=O)Nc1ccc(-c2n[nH]c(Nc3cnccn3)c2C(N)=O)cc1OCc1ccc(C(F)(F)F)cc1` [Compound 216, 3-(4-(ethylsulfonamido)-3-((4-(trifluoromethyl)benzyl)oxy)phenyl)-5-(pyrazin-2-ylamino)-1H-pyrazole-4-carboxamide], the Kd in test [1] and in test [3] was greater than 30 µM throughout.

In the case of `CCS(=O)(=O)Nc1ccc(-c2n[nH]c(Nc3cnccn3)c2C(N)=O)cc1OCc1cccc(C(F)(F)F)c1` [Compound 218, 3-(4-(ethylsulfonamido)-3-((3-(trifluoromethyl)benzyl)oxy)phenyl)-5-(pyrazin-2-ylamino)-1H-pyrazole-4-carboxamide], the Kd in test [1] and in test [3] was greater than 30 µM throughout.

Turning to `CCS(=O)(=O)Nc1ccc(-c2n[nH]c(Nc3ccc4cc(Cl)ccc4n3)c2C(N)=O)cc1OCc1ccc(F)cc1` [Compound 220, 5-((6-chloroquinolin-2-yl)amino)-3-(4-(ethylsulfonamido)-3-((4-fluorobenzyl)oxy)phenyl)-1H-pyrazole-4-carboxamide], the Kd in test [1] and in test [3] was greater than 30 µM throughout.

On to `C[C@H](Oc1cc(NS(=O)(=O)C(F)F)ccc1-c1n[nH]c(Nc2cnccn2)c1C(N)=O)c1ccc(F)cc1` [Compound 243, 3-[4-(difluoromethanesulfonamido)-2-[(1 S)-1-(4-fluorophenyl)ethoxy]phenyl]-5-[(pyrazin-2-yl)amino]-1H-pyrazole-4-carboxamide], for which the Kd in test [1] and in test [3] was greater than 30 µM throughout.

In the case of `C[C@H](Oc1cc(NS(=O)(=O)CC(F)(F)F)ccc1-c1n[nH]c(Nc2cnccn2)c1C(N)=O)c1ccc(F)cc1` [Compound 244, 3-{2-[(1S)-1-(4-fluorophenyl)ethoxy]-4-(2,2,2-trifluoroethanesulfonamido)phenyl}-5-[(pyrazin-2-yl)amino]-1H-pyrazole-4-carboxamide], the Kd in test [1] and in test [3] was greater than 30 µM throughout.

On to `C[C@@H](Oc1cc(NS(=O)(=O)CC(F)(F)F)ccc1-c1n[nH]c(Nc2cnccn2)c1C(N)=O)c1ccc(F)cc1` [Compound 254, 3-{2-[(1R)-1-(4-fluorophenyl)ethoxy]-4-(2,2,2-trifluoroethanesulfonamido)phenyl}-5-[(pyrazin-2-yl)amino]-1H-pyrazole-4-carboxamide], for which the Kd in test [1] and in test [3] was greater than 30 µM throughout.

As for `C[C@@H](Oc1cc(NS(=O)(=O)C(F)F)ccc1-c1n[nH]c(Nc2cnccn2)c1C(N)=O)c1ccc(F)cc1` [Compound 255, 3-[4-(difluoromethanesulfonamido)-2-[(1R)-1-(4-fluorophenyl)ethoxy]phenyl]-5-[(pyrazin-2-yl)amino]-1H-pyrazole-4-carboxamide], the Kd in test [1] and in test [3] was greater than 30 µM throughout.

As to `C[C@H](Oc1cc(-c2n[nH]c(Nc3cc(C45CC6CC(CC(C6)C4)C5)on3)c2C(N)=O)ccc1NS(=O)(=O)C(F)F)c1ccc(F)cc1` [Compound 304], the Kd in test [1] and in test [3] was greater than 30 µM in each case.
